Holding throughout (assay type): ADME, organism-based
Data set [1] is described as follows: The pharmacokinetics of Telithromycin evaluated after administration of single 800-mg doses to healthy adult subjects. On the set-up: dose 800 mg, route oral. The settings on record: human, in vivo, dosed compound id 4, dosed compound name TELITHROMYCIN, gender adult male and female, regimen Single dose, tissue Plasma.
A short description of data set [2]: The pharmacokinetics of Telithromycin evaluated after administration of multiple 800-mg doses to healthy adult subjects. On the set-up: dose 800 mg, route oral. To be noted: human, in vivo, dosed compound id 4, dosed compound name TELITHROMYCIN, gender adult male and female, regimen Multiple dose, tissue Plasma.
The nature of data set [3]: (§1) The pharmacokinetics of Telithromycin evaluated after administration of Ketek to subjects. The settings on record: human, in vivo; dosed compound id 4, dosed compound name TELITHROMYCIN, route oral, tissue Feces; read-out: Excretion.
The next data set relates to Homo sapiens. The description is as §1. The settings on record: in vivo, po, dosed compound id 4, dosed compound name TELITHROMYCIN, tissue Urine.
The mark [4] stands for this setting: po, 800 mg, read-out: AUC(0-24).

Broadly, the Cmax is the peak of the concentration-time curve. Usually AUC stands for the area under the concentration-time curve, a measure of exposure. By Tmax is commonly meant the time at which the peak concentration occurs. As a reminder, the half-life is how long it takes for the measured level to halve. Lower therefore signals rapid decline. On to `CC[C@H]1OC(=O)[C@H](C)C(=O)[C@H](C)[C@@H](O[C@@H]2O[C@H](C)C[C@H](N(C)C)[C@H]2O)[C@](C)(OC)C[C@@H](C)C(=O)[C@H](C)[C@H]2N(CCCCn3cnc(-c4cccnc4)c3)C(=O)O[C@]12C` [TELITHROMYCIN], for which the Cmax in data set [1] (po, 800 mg) stood at 1900 ng/mL; in data set [2] (po, 800 mg), 2270 ng/mL. Also, the AUC in data set [1] (setting [4]) was 8250 ng·h/mL; in data set [2] (setting [4]), 12500 ng·h/mL. In addition, the Tmax in data set [1] (dose 800 mg, route oral) was determined as 1 h; in data set [2] (dose 800 mg, route oral), 1 h. Moreover, the half-life is 7.16 h in data set [1] (dose 800 mg, route oral) and 9.81 h in data set [2] (dose 800 mg, route oral). In data set [1] (dose 800 mg, route oral, read-out: C(24h)), the concentration at 24 h is 30 ng/mL. Further, in data set [3], the dose excreted is 7%. In the data set with Homo sapiens, this compound showed an Excretion of 13%.

These data come from ChEMBL document CHEMBL3832548, “DailyMed|setid=ba1cca98-f350-4655-88e3-6ef990779fb9 | KETEK - telithromycin tablet, film coated|Physicians Total Care, Inc”.
